Experimental data as given in ChEMBL document CHEMBL3808348, “Rational Design, Synthesis, and Biological Evaluation of 7-Azaindole Derivatives as Potent Focused Multi-Targeted Kinase Inhibitors” (J Med Chem, 2016).

Key:
[1] = target: Serine/threonine-protein kinase mTOR (Homo sapiens) (UniProt P42345); details: 100 nM
Description: Inhibition of GST-tagged human recombinant mTOR (1360 to 2549 residues) expressed in baculovirus using GFP-4E -BP1 as substrate at 100 nM

[2] = target: CDK2/Cyclin A2 (Homo sapiens) (UniProt P24941+P20248); details: 100 nM
Description: Inhibition of CDK2/cyclinA (unknown origin) at 100 nM

[3] = tested on: Serine/threonine-protein kinase B-raf (Homo sapiens), P15056 [V600E]; experiment: Inhibition of full length GST-tagged human recombinant BRAF V600E mutant expressed in baculovirus using Fluorescein-MAP2K1 as substrate at 100 nM
[4] = target: T1, Tyrosine-protein kinase Fyn (Homo sapiens, UniProt P06241); experiment: Inhibition of His-tagged full length human recombinant FYN expressed in baculovirus using Fluorescein-Poly GT as substrate
[5] = target: Ephrin type-B receptor 2 (Homo sapiens) (UniProt P29323); experiment: Inhibition of GST-tagged human recombinant EPHB2 (616 to 884 residues) expressed in baculovirus using Fluorescein-Poly GT as substrate at 100 nM
[6] = target: Non-receptor tyrosine-protein kinase TYK2 (Homo sapiens) (UniProt P29597); details: 100 nM
Description: Inhibition of GST-tagged human recombinant TYK2 (832 to 1187 residues) expressed in baculovirus using Fluorescein-Poly GT as substrate at 100 nM

[7] = target: T2, Platelet-derived growth factor receptor alpha (Homo sapiens, UniProt P16234); experiment: Inhibition of full length GST-tagged human recombinant PDGFRalpha expressed in baculovirus using Fluorescein-Poly GT as substrate
T2 sequence (P16234 whole entry): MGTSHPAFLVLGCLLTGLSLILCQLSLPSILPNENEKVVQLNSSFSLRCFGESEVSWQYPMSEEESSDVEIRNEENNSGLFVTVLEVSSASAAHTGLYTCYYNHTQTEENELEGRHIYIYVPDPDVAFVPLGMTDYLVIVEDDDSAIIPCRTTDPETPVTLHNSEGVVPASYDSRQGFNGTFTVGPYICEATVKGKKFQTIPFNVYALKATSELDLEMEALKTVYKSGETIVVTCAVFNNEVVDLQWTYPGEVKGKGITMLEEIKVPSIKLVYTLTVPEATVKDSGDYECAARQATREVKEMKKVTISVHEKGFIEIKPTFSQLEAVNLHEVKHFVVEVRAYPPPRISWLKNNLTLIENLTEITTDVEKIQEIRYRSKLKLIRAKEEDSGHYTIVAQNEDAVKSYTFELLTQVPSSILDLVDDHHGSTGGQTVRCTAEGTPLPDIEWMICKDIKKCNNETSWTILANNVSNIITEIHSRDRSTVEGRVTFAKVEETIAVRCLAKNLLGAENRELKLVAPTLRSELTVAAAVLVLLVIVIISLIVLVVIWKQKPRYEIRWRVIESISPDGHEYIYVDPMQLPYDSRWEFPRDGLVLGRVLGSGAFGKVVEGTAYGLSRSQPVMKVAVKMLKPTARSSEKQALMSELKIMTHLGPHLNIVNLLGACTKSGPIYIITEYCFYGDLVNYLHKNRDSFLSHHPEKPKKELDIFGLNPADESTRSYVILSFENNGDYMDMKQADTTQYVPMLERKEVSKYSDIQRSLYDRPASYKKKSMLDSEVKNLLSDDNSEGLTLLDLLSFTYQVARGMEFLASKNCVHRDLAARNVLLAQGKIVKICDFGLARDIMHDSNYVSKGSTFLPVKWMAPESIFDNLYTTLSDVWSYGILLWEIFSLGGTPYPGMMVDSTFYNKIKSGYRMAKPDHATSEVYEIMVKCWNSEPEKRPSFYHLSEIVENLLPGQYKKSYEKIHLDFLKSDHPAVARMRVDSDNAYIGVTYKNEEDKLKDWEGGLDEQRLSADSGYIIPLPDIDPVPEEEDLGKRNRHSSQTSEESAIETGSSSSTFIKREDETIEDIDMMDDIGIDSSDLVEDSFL

MDA-MB-231 = experiment: Antiproliferative activity against human MDA-MB-231 cells after 72 hrs by MTT assay; format: functional, cell-based; details: MDA-MB-231, 72 h
[8] = target: Fibroblast growth factor receptor 2 (Homo sapiens) (UniProt P21802); experiment: Inhibition of His-tagged human recombinant FGFR2 (403 to 822 residues) expressed in baculovirus using Fluorescein-Poly GT as substrate at 100 nM
[9] = target: Aurora kinase B (Homo sapiens) (UniProt Q96GD4); details: 100 nM
Chain of Aurora kinase B (Homo sapiens) (Q96GD4 whole entry): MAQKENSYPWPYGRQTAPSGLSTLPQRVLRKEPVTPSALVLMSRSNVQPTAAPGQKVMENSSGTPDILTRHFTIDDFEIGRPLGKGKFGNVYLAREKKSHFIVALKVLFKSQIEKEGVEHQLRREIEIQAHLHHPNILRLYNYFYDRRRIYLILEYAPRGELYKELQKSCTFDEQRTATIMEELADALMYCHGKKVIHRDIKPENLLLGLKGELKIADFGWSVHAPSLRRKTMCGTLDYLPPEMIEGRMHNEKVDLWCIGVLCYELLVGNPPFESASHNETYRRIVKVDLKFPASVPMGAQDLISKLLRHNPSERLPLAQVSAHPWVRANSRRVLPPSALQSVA
Description: Inhibition of full length His-tagged human recombinant Aurora B expressed in baculovirus using Fluorescein-CREBtide as substrate at 100 nM

hERG (KCNH2) = hERG (KCNH2) (Homo sapiens, UniProt Q12809); experiment: Inhibition of human ERG expressed in HEK293 cells at 30 uM by patch clamp assay; format: cell-based; details: HEK293 cells expressing human ERG
[10] = target: T3, Tyrosine-protein kinase Lyn (Homo sapiens, UniProt P07948); experiment: Inhibition of GST-tagged full length human recombinant LYNA expressed in baculovirus using Fluorescein-Poly GT as substrate at 100 nM
Target sequence in this assay (P07948 2-512 limits assumed): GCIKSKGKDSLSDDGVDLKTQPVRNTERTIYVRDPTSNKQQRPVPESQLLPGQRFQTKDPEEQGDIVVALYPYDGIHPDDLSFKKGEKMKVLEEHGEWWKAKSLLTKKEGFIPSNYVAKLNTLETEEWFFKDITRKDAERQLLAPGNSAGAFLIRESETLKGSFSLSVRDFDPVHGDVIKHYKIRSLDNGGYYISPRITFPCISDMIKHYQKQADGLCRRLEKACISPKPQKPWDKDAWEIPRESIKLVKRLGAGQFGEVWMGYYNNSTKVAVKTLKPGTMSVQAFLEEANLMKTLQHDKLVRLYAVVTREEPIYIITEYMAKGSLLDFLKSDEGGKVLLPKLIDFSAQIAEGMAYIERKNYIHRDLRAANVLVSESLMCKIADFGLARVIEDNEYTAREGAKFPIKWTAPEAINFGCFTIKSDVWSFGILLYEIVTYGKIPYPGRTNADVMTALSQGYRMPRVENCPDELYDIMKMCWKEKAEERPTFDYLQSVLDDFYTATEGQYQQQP

[11] = AUC(0 to infinity) in Swiss mouse plasma at 20 mg/kg, po by LC/MS/MS analysis; format: ADME, organism-based; design: dose 20 mg/kg, time infinity, route oral
[12] = target: CDK7/Cyclin H/MNAT1 (Homo sapiens) (UniProt P51946+P50613+P51948); details: 100 nM
Description: Inhibition of CDK7/cyclinH/MNAT1 (unknown origin) at 100 nM

[13] = Antiproliferative activity against human PC3 cells after 72 hrs by MTT assay; format: functional, cell-based; details: PC-3, 72 h
[14] = target: Inhibitor of nuclear factor kappa-B kinase subunit beta (Homo sapiens) (UniProt O14920); details: 100 nM
Description: Inhibition of GST-tagged full length human recombinant IKKbeta expressed in baculovirus using Fluorescein-Poly GT as substrate at 100 nM

[15] = tested on: Tyrosine-protein kinase ABL1 (Homo sapiens), P00519 [G250E]; experiment: Inhibition of His-tagged full length human recombinant ABL G250E mutant expressed in baculovirus using Fluorescein-Poly GT as substrate at 100 nM
[16] = target: Tyrosine-protein kinase Fes/Fps (Homo sapiens) (UniProt P07332); details: 100 nM
Chain of Tyrosine-protein kinase Fes/Fps (Homo sapiens) (P07332 whole entry): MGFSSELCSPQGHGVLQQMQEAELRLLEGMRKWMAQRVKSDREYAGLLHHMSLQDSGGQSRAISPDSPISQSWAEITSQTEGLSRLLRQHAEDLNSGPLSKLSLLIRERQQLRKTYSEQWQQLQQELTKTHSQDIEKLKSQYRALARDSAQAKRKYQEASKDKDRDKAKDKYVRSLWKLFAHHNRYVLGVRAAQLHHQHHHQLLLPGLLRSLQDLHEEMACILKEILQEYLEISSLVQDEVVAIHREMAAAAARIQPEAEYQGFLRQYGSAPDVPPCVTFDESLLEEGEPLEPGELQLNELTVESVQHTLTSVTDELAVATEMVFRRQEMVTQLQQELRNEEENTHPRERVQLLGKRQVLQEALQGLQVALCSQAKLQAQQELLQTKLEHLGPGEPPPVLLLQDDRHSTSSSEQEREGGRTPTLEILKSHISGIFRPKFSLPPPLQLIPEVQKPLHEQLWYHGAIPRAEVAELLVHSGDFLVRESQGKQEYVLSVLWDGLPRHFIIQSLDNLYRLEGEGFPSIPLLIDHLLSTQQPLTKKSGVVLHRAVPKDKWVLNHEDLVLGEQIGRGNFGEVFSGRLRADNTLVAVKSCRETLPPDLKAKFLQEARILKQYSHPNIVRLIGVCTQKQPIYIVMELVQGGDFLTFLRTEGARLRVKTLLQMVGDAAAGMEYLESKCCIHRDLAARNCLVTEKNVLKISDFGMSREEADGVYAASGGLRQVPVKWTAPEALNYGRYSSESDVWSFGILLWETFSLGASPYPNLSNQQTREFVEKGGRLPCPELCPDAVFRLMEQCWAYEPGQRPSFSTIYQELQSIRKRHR
Description: Inhibition of His-tagged full length human recombinant FES expressed in baculovirus using Fluorescein-Poly GT as substrate at 100 nM

HT-29 = experiment: Antiproliferative activity against human HT-29 cells after 72 hrs by MTT assay; format: functional, cell-based; details: HT-29, 72 h
[17] = target: Myotonin-protein kinase (Homo sapiens) (UniProt Q09013); details: 100 nM
Description: Inhibition of full length GST-tagged human recombinant DMPK expressed in baculovirus expression system at 100 nM

[18] = target: T2, Platelet-derived growth factor receptor alpha; details: 100 nM
Description: Inhibition of GST-tagged human recombinant PDGFRalpha (550 to 1089 residues) expressed in baculovirus using Fluorescein-Poly GT as substrate at 100 nM

[19] = target: Tyrosine-protein kinase Mer (Homo sapiens) (UniProt Q12866); details: 100 nM
Description: Inhibition of GST-tagged human recombinant cMER expressed in baculovirus using Fluorescein-Poly GT as substrate at 100 nM

[20] = target: Fibroblast growth factor receptor 1 (Homo sapiens) (UniProt P11362); details: 100 nM
Description: Inhibition of His-tagged human recombinant FGFR1 (308 to 731 residues) expressed in baculovirus using Fluorescein-Poly GT as substrate at 100 nM

[21] = target: Mitogen-activated protein kinase 1 (Homo sapiens) (UniProt P28482); details: 100 nM
Description: Inhibition of GST-tagged full length human recombinant ERK2 expressed in Escherichia coli using GFP-AT F2 as substrate at 100 nM

[22] = target: Tyrosine-protein kinase ITK/TSK (Homo sapiens) (UniProt Q08881); details: 100 nM
Chain of Tyrosine-protein kinase ITK/TSK (Homo sapiens) (Q08881 whole entry): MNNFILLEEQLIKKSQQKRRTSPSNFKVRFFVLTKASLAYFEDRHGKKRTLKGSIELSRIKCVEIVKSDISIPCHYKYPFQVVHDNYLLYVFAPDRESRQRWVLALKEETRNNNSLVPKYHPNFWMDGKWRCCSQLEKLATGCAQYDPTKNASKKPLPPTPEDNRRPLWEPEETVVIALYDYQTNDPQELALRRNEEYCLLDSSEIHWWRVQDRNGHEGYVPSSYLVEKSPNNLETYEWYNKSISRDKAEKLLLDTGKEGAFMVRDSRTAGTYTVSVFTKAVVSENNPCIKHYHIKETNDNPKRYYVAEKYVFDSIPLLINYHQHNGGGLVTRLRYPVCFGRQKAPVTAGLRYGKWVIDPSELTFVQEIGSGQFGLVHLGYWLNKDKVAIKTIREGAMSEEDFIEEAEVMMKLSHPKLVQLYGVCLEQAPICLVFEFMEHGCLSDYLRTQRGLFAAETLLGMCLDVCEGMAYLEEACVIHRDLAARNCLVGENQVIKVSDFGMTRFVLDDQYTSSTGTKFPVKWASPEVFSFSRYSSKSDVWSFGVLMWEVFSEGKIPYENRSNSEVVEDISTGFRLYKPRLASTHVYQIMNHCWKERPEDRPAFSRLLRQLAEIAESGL
Description: Inhibition of GST-tagged full length human recombinant ITK expressed in baculovirus using Fluorescein-Poly GT as substrate at 100 nM

HepG2 = experiment: Antiproliferative activity against human HepG2 cells after 72 hrs by MTT assay; format: functional, cell-based; details: HepG2, 72 h
[23] = target: T3, Tyrosine-protein kinase Lyn; experiment: Inhibition of GST-tagged full length human recombinant LYNA expressed in baculovirus using Fluorescein-Poly GT as substrate
[24] = target: Epidermal growth factor receptor (Homo sapiens, UniProt P00533, T790M); experiment: Inhibition of GST-tagged human recombinant EGFR T790M mutant (668 to 1210 residues) expressed in baculovirus using Fluorescein-Poly GT as substrate
[25] = target: Vascular endothelial growth factor receptor 3 (Homo sapiens) (UniProt P35916); details: 100 nM
Chain of Vascular endothelial growth factor receptor 3 (Homo sapiens) (P35916 whole entry): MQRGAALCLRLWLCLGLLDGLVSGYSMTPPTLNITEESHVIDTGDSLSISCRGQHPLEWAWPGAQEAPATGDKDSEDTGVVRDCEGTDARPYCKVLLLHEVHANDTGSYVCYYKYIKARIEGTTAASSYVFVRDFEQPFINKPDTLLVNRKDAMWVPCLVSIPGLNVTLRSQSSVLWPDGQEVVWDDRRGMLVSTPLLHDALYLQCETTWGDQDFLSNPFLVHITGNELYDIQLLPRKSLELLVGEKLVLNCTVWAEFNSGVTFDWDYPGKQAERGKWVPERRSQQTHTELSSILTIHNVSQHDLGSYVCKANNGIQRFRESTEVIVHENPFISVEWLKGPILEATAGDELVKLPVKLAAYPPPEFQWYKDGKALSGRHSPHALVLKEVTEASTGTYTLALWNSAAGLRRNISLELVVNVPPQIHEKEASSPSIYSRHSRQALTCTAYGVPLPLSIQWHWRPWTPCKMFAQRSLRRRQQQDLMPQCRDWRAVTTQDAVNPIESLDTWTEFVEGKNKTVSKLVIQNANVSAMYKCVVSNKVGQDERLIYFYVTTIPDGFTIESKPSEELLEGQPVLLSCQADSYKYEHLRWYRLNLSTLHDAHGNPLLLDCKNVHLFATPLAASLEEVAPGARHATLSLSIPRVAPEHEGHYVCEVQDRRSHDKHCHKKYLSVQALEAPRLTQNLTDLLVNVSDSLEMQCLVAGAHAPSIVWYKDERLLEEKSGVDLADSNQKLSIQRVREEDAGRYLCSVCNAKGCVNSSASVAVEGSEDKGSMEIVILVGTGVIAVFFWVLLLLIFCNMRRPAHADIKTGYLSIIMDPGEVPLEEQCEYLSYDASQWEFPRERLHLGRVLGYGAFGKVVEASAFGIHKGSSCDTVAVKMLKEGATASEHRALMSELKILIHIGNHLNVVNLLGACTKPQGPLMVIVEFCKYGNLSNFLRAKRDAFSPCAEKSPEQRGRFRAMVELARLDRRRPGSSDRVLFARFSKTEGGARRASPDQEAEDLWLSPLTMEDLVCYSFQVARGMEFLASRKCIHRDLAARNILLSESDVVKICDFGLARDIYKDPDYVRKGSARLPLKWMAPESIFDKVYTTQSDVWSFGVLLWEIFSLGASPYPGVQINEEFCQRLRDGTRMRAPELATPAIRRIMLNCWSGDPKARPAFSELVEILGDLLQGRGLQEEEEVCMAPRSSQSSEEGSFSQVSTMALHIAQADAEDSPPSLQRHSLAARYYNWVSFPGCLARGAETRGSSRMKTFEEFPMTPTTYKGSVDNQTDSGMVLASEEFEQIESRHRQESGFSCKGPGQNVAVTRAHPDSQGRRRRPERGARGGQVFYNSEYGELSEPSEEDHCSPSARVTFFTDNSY
Description: Inhibition of GST-tagged human recombinant VEGFR3 (800 to 1297 residues) expressed in baculovirus using Fluorescein-Poly GT as substrate at 100 nM

[26] = target: T4, Tyrosine-protein kinase ABL1 (Homo sapiens, UniProt P00519); experiment: Inhibition of His-tagged full length human recombinant wild type ABL expressed in baculovirus using Fluorescein-Poly GT as substrate
[27] = target: T4, Tyrosine-protein kinase ABL1; experiment: Inhibition of His-tagged full length human recombinant wild type ABL expressed in baculovirus using Fluorescein-Poly GT as substrate at 100 nM
[28] = target: T1, Tyrosine-protein kinase Fyn; details: 100 nM
Description: Inhibition of His-tagged full length human recombinant FYN expressed in baculovirus using Fluorescein-Poly GT as substrate at 100 nM

[29] = target: Ephrin type-A receptor 4 (Homo sapiens) (UniProt P54764); details: 100 nM
Description: Inhibition of GST-tagged human recombinant EPHA4 (616 to 887 residues) expressed in baculovirus using Fluorescein-Poly GT as substrate at 100 nM

[30] = target: Ephrin type-A receptor 2 (Homo sapiens) (UniProt P29317); details: 100 nM
Description: Inhibition of GST-tagged human recombinant EPHA2 (560 to 976 residues) expressed in baculovirus using Fluorescein-Poly GT as substrate at 100 nM

[31] = target: Vascular endothelial growth factor receptor 2 (Homo sapiens) (UniProt P35968); experiment: Inhibition of full length His-tagged human recombinant VEGFR2 expressed in baculovirus using Fluorescein-Poly GT as substrate at 100 nM
[32] = target: Glycogen synthase kinase-3 beta (Homo sapiens) (UniProt P49841); details: 100 nM
Description: Inhibition of GSK3B (unknown origin) at 100 nM

[33] = target: Tyrosine-protein kinase JAK2 (Homo sapiens) (UniProt O60674); details: 100 nM
Description: Inhibition of GST-tagged human recombinant JAK2 (809 to 1153 +9 residues) expressed in baculovirus using GFP-ST AT1 as substrate at 100 nM

[34] = target: cAMP-dependent protein kinase catalytic subunit alpha (Homo sapiens) (UniProt P17612); details: 100 nM
Description: Inhibition of His-tagged human recombinant PKA C-alpha (1 to 351 residues) expressed in Escherichia coli using Fluorescein-Crosstide as substrate at 100 nM

[35] = Tmax in Swiss mouse plasma at 2 mg/kg, iv by LC/MS/MS analysis; format: ADME, organism-based
[36] = target: Aurora kinase A (Homo sapiens) (UniProt O14965); details: 100 nM
Description: Inhibition of full length His-tagged human recombinant Aurora A expressed in baculovirus using Fluorescein-CREBtide as substrate at 100 nM

[37] = target: Protein kinase C delta type (Homo sapiens) (UniProt Q05655); details: 100 nM
Description: Inhibition of full length human recombinant PKCdelta expressed in baculovirus using Fluorescein-PKC as substrate at 100 nM

Compound: COC(=O)c1cc2cc(NCc3cc(NC(=O)c4cc(-n5cnc(C)c5)cc(C(F)(F)F)c4)ccc3C)cnc2[nH]1
- inhibition [1]: < 40%
- inhibition [2]: < 40%
- inhibition [3]: > 80%
- IC50 [4]: 0.131 µM
- inhibition [5]: > 80%
- inhibition [6]: < 40%
- IC50 [7]: 0.05 µM
- EC50 (MDA-MB-231): 0.158 µM
- inhibition [8]: 52%
- inhibition [9]: < 40%
- inhibition at 30 µM (hERG (KCNH2)): 26%
- inhibition [10]: > 80%
- AUC(0-inf) [11]: 3030 ng·h/mL
- inhibition [12]: < 40%
- EC50 [13]: 0.152 µM
- inhibition [14]: < 40%
- inhibition [15]: > 80%
- inhibition [16]: < 40%
- EC50 (HT-29): 0.037 µM
- inhibition [17]: < 40%
- inhibition [18]: < 40%
- inhibition [19]: < 40%
- inhibition [20]: < 40%
- inhibition [21]: < 40%
- inhibition [22]: < 40%
- EC50 (HepG2): 0.038 µM
- IC50 [23]: 0.037 µM
- IC50 [24]: 0.112 µM
- inhibition [25]: < 40%
- IC50 [26]: 0.006 µM
- inhibition [27]: > 80%
- inhibition [28]: < 40%
- inhibition [29]: < 40%
- inhibition [30]: < 40%
- inhibition [31]: 46%
- inhibition [32]: < 40%
- inhibition [33]: < 40%
- inhibition [34]: < 40%
- Tmax [35]: 10 min
- inhibition [36]: < 40%
- inhibition [37]: < 40%
